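Tested at 5 concentrations; 48 h exposure; 96-well plates; endpoints linearly interpolated, else capped at highest concentration. The concentration for 50% growth inhibition is given as GI50.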 The source made the active and inactive calls. Cut-off read from the data, not from the text of the source: active = GI50 up to about 1.1 µM and inactive = higher. Non-standard residues stand in square brackets, D forms with d. Residues, ends and D or L forms follow the SMILES beside them. ξ: configuration not given here. *: point of attachment. ξF = NC(Cc1ccccc1)C(=O)O; Cbz = O=C(OCc1ccccc1)*
How the values were obtained:
Test in all cases: NCI anticancer screen, dose series, 48 h
[1] = tested on: A498
[2] = tested on: ACHN
[3] = tested on: DU-145
[4] = tested on: HCT-116
[5] = tested on: HT-29
[6] = tested on: LOX IMVI
[7] = tested on: MCF7
[8] = tested on: MDA-MB-231
[9] = tested on: MOLT-4
[10] = tested on: NCI-H460
[11] = tested on: NCI/ADR-RES
[12] = tested on: OVCAR-3
[13] = tested on: OVCAR-8
[14] = tested on: PC-3
[15] = tested on: SK-MEL-28
[16] = tested on: SW-620
[17] = tested on: TK-10
[18] = tested on: UACC-257
[19] = tested on: NCI-H23
[20] = tested on: CCRF-CEM

SMILES | GI50 [1] | GI50 [2] | GI50 [3] | GI50 [4] | GI50 [5] | GI50 [6] | GI50 [7] | GI50 [8] | GI50 [9] | GI50 [10] | GI50 [11] | GI50 [12] | GI50 [13] | GI50 [14] | GI50 [15] | GI50 [16] | GI50 [17] | GI50 [18] | GI50 [19] | GI50 [20]
Oc1c(Br)cc(/C=C/c2cccc(/C=C/c3cc(Br)c(O)c(Br)c3)n2)cc1Br | 8.2 µM (inactive) | 6.38 µM (inactive) | < 0.01 µM (active) | 8.81 µM (inactive) | 12.6 µM (inactive) | 13.7 µM (inactive) | 15.5 µM (inactive) | 14.8 µM (inactive) | 3.43 µM (inactive) | 2.96 µM (inactive) | 21.6 µM (inactive) | 14.1 µM (inactive) | 13 µM (inactive) | 7.52 µM (inactive) | 12.1 µM (inactive) | 17.7 µM (inactive) | 14.2 µM (inactive) | 15.7 µM (inactive) | – | –
CC1(C)COC(c2cccc(C3=NC(C)(C)CO3)c2)=N1 | – | > 100 µM (inactive) | > 100 µM (inactive) | > 100 µM (inactive) | > 100 µM (inactive) | > 100 µM (inactive) | > 100 µM (inactive) | > 100 µM (inactive) | > 100 µM (inactive) | > 100 µM (inactive) | > 100 µM (inactive) | 0.0375 µM (active) | > 100 µM (inactive) | > 100 µM (inactive) | > 100 µM (inactive) | > 100 µM (inactive) | > 100 µM (inactive) | > 100 µM (inactive) | > 100 µM (inactive) | –
CCCCOCOc1ccccc1P1(=O)COc2ccccc2OC1 | – | 86.7 µM (inactive) | > 100 µM (inactive) | 62.5 µM (inactive) | > 100 µM (inactive) | > 100 µM (inactive) | 75 µM (inactive) | 43.4 µM (inactive) | – | 58.3 µM (inactive) | > 100 µM (inactive) | 68.7 µM (inactive) | – | 55.3 µM (inactive) | > 100 µM (inactive) | > 100 µM (inactive) | 20.8 µM (inactive) | 67.3 µM (inactive) | > 100 µM (inactive) | > 100 µM (inactive)
CCSc1[nH]c(Nc2nc(-c3ccccc3)n(-c3ccccc3)n2)c(C(N)=O)c1C(N)=O | – | – | > 10 µM (inactive) | – | > 10 µM (inactive) | > 10 µM (inactive) | > 10 µM (inactive) | > 10 µM (inactive) | > 10 µM (inactive) | – | – | – | 6.64 µM (inactive) | > 10 µM (inactive) | > 10 µM (inactive) | > 10 µM (inactive) | > 10 µM (inactive) | > 10 µM (inactive) | > 10 µM (inactive) | > 10 µM (inactive)
CC(=O)OCC1OC(SC2=N/C(=C\c3cc4c(=O)c5ccccc5sc4s3)C(=O)N2c2ccccc2)C(OC(C)=O)C(OC(C)=O)C1OC(C)=O (centres undefined) | > 100 µM (inactive) | > 100 µM (inactive) | > 100 µM (inactive) | 37.6 µM (inactive) | > 100 µM (inactive) | 55.1 µM (inactive) | 78.7 µM (inactive) | 58.2 µM (inactive) | 20.6 µM (inactive) | 83.2 µM (inactive) | > 100 µM (inactive) | > 100 µM (inactive) | > 100 µM (inactive) | > 100 µM (inactive) | > 100 µM (inactive) | 67.8 µM (inactive) | > 100 µM (inactive) | > 100 µM (inactive) | > 100 µM (inactive) | –
CC(C)(CO)NC(=O)c1cccs1 | – | > 100 µM (inactive) | > 100 µM (inactive) | > 100 µM (inactive) | > 100 µM (inactive) | > 100 µM (inactive) | > 100 µM (inactive) | > 100 µM (inactive) | > 100 µM (inactive) | > 100 µM (inactive) | > 100 µM (inactive) | > 100 µM (inactive) | > 100 µM (inactive) | > 100 µM (inactive) | > 100 µM (inactive) | > 100 µM (inactive) | > 100 µM (inactive) | > 100 µM (inactive) | > 100 µM (inactive) | > 100 µM (inactive)
COc1nc(C#CC2CCCCC2)nc(OC)n1 | 21.4 µM (inactive) | 4.26 µM (inactive) | 3.92 µM (inactive) | 0.401 µM (active) | 4.81 µM (inactive) | 1.51 µM (inactive) | 2.14 µM (inactive) | 2.3 µM (inactive) | 2.98 µM (inactive) | 5.6 µM (inactive) | 1.64 µM (inactive) | 3.22 µM (inactive) | 1.61 µM (inactive) | 4.21 µM (inactive) | 8.18 µM (inactive) | 3.3 µM (inactive) | – | 11 µM (inactive) | 1.45 µM (inactive) | 1.12 µM (inactive)
O=C1CC(C(=O)O)Cc2c(Br)ccc(O)c21 (centres undefined) | – | > 100 µM (inactive) | > 100 µM (inactive) | > 100 µM (inactive) | > 100 µM (inactive) | > 100 µM (inactive) | > 100 µM (inactive) | > 100 µM (inactive) | > 100 µM (inactive) | > 100 µM (inactive) | > 100 µM (inactive) | > 100 µM (inactive) | > 100 µM (inactive) | > 100 µM (inactive) | > 100 µM (inactive) | – | > 100 µM (inactive) | > 100 µM (inactive) | > 100 µM (inactive) | > 100 µM (inactive)
COCOc1cc(OC)ccc1C/C=N/O | – | > 100 µM (inactive) | > 100 µM (inactive) | > 100 µM (inactive) | > 100 µM (inactive) | > 100 µM (inactive) | > 100 µM (inactive) | > 100 µM (inactive) | > 100 µM (inactive) | > 100 µM (inactive) | > 100 µM (inactive) | > 100 µM (inactive) | > 100 µM (inactive) | > 100 µM (inactive) | > 100 µM (inactive) | > 100 µM (inactive) | > 100 µM (inactive) | > 100 µM (inactive) | > 100 µM (inactive) | > 100 µM (inactive)
NS(=O)(=O)c1ccc(NC(=O)Nc2ccccc2F)cc1 | > 100 µM (inactive) | > 100 µM (inactive) | > 100 µM (inactive) | > 100 µM (inactive) | 76 µM (inactive) | > 100 µM (inactive) | > 100 µM (inactive) | > 100 µM (inactive) | > 100 µM (inactive) | > 100 µM (inactive) | > 100 µM (inactive) | > 100 µM (inactive) | > 100 µM (inactive) | > 100 µM (inactive) | > 100 µM (inactive) | > 100 µM (inactive) | > 100 µM (inactive) | > 100 µM (inactive) | > 100 µM (inactive) | –
O=C1C(Cl)=C(Oc2ccc([N+](=O)[O-])cc2)C(=O)c2c(O)ccc(O)c21 | > 100 µM (inactive) | 54.2 µM (inactive) | > 100 µM (inactive) | 49.3 µM (inactive) | 33.9 µM (inactive) | – | 46.1 µM (inactive) | 28.4 µM (inactive) | 5.85 µM (inactive) | > 100 µM (inactive) | > 100 µM (inactive) | 33.6 µM (inactive) | > 100 µM (inactive) | > 100 µM (inactive) | > 50.2 µM (inactive) | 30.2 µM (inactive) | 44.1 µM (inactive) | > 100 µM (inactive) | > 57.9 µM (inactive) | 2.12 µM (inactive)
CCOC(=O)CNC(=O)C(Cc1ccccc1)NC(=O)OCc1ccccc1 (centres undefined) (Cbz-[ξF]-Gly-OEt) | 53.8 µM (inactive) | > 100 µM (inactive) | > 100 µM (inactive) | > 100 µM (inactive) | > 100 µM (inactive) | > 100 µM (inactive) | > 100 µM (inactive) | > 100 µM (inactive) | > 100 µM (inactive) | > 100 µM (inactive) | > 100 µM (inactive) | > 100 µM (inactive) | > 100 µM (inactive) | > 100 µM (inactive) | – | > 100 µM (inactive) | – | – | > 100 µM (inactive) | > 100 µM (inactive)
O=C(COc1ccc(OCC(=O)N2C(=O)CN(c3ccc(Cl)cc3)C2=S)cc1)N1C(=O)CN(c2ccc(Cl)cc2)C1=S | 22.1 µM (inactive) | 26.4 µM (inactive) | 43.2 µM (inactive) | 15.7 µM (inactive) | 31.4 µM (inactive) | – | 34 µM (inactive) | 19.8 µM (inactive) | 33.7 µM (inactive) | 23.3 µM (inactive) | 28.7 µM (inactive) | – | – | 23.9 µM (inactive) | 36.3 µM (inactive) | 31.3 µM (inactive) | 24.4 µM (inactive) | 27.8 µM (inactive) | 32.5 µM (inactive) | –
O=C(O)c1ccc(CI)cc1 | 20.8 µM (inactive) | 15.7 µM (inactive) | 18.4 µM (inactive) | 14.5 µM (inactive) | 15.1 µM (inactive) | – | 14.3 µM (inactive) | 21.8 µM (inactive) | 15.3 µM (inactive) | 15.6 µM (inactive) | 16.1 µM (inactive) | 11.2 µM (inactive) | 21.9 µM (inactive) | 15.1 µM (inactive) | 14.3 µM (inactive) | 14.6 µM (inactive) | – | 19.3 µM (inactive) | 12.7 µM (inactive) | 9.57 µM (inactive)
CCC(=O)n1c(=O)n(-c2ccc([N+](=O)[O-])cc2)c(=O)n1C(=O)CC | – | > 100 µM (inactive) | > 100 µM (inactive) | > 100 µM (inactive) | > 100 µM (inactive) | > 100 µM (inactive) | > 100 µM (inactive) | > 100 µM (inactive) | > 100 µM (inactive) | > 100 µM (inactive) | > 100 µM (inactive) | > 100 µM (inactive) | > 100 µM (inactive) | > 100 µM (inactive) | > 100 µM (inactive) | > 100 µM (inactive) | > 100 µM (inactive) | > 100 µM (inactive) | > 100 µM (inactive) | > 100 µM (inactive)

— ChEMBL document CHEMBL1201862, “PubChem BioAssay data set” (2004)
